This note sets out measurements from patent US20240083853A1, “HSD17B13 INHIBITORS AND USES THEREOF” (FL2022-001, Inc., priority 2020, published 2024).

This experiment deals with T1, Recombinant human HSD17B13 enzyme (Homo sapiens, UniProt Q7Z5P4).
T1 sequence (Q7Z5P4 20-300): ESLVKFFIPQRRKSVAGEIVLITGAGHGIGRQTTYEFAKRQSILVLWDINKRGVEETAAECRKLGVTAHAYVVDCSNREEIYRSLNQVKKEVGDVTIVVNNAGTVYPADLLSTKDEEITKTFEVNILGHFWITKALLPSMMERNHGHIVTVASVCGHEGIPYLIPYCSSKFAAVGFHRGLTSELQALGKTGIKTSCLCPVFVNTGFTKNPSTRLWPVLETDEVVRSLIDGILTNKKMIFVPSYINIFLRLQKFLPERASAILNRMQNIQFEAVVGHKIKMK
In words: HSD17b13 NAD(P)H-Glo biochemical assay. The settings on record: for IC50: 50 uM estradiol, 1 mM NAD+, NAD(P)H-Glo luminescence, read-out: HSD17β13 IC50. The procedure, abridged:
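Recombinant human HSD17B13 in 20 mM Tris pH7.4 with 0.002% Tween-20 and 0.02% BSA was preincubated with inhibitor for 20 minutes at RT. The reaction ran 3 hours at 37° C with 50 uM estradiol and 1 mM NAD+ (final). NADH formed was detected by NAD(P)H-Glo luminescence after 1 hour at RT.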

For `Oc1c(F)cc2nnn(-c3ccc(N4CCO[C@H](c5ccccc5)C4)cc3)c2c1F` [Compound 26.27, (R)-5,7-Difluoro-1-(4-(2-phenylmorpholino)phenyl)-1H-benzo[d][1,2,3]triazol-6-ol], the IC50 lay within 100 to 1000 nM. Turning to `Oc1c(F)cc2ncn(-c3ccc(N4CC5(CCOCC5)C4)cc3)c2c1F` [Compound 20.11, 1-(4-(7-Oxa-2-azaspiro[3.5]nonan-2-yl)phenyl)-5,7-difluoro-1H-benzo[d]imidazol-6-ol], the IC50 lay in the range of 100 to 1000 nM. With `Oc1c(F)cc2nnn(-c3ccc(N4CC5(CCOCC5)C4)cn3)c2c1F` [Compound 26.15, 1-(5-(7-Oxa-2-azaspiro[3.5]nonan-2-yl)pyridin-2-yl)-5,7-difluoro-1H-benzo[d][1,2,3]triazol-6-ol], the IC50 lay in the range of 100 to 1000 nM. The same measure, in the same setting: the result for `CS(=O)(=O)Nc1cccc(-c2ccc(-n3ncc4cc(F)c(O)cc43)cc2)c1` [Compound 13.33, N-(4′-(5-Fluoro-6-hydroxy-1H-indazol-1-yl)-[1,1′-biphenyl]-3-yl)methanesulfonamide] reads 1000 to 30000 nM. The same measure, in the same setting: the result for `COc1ccc(-c2ccc(-n3ncc4cc(F)c(O)cc43)cc2)cc1` [Compound 13.21, 5-Fluoro-1-(4′-methoxy-[1,1′-biphenyl]-4-yl)-1H-indazol-6-ol] reads 100 to 1000 nM; that for `CC1(C#N)CN(c2ccc(-n3ncc4cc(F)c(O)c(F)c43)cc2)C1` [Compound 23.27, 1-(4-(5,7-Difluoro-6-hydroxy-1H-indazol-1-yl)phenyl)-3-methylazetidine-3-carbonitrile], less than 100 nM. On the same count and under the same terms, the result for `Oc1c(F)cc2cnn(-c3ccc(C4=CCCCC4)cc3)c2c1F` [Compound 27.1, 5,7-Difluoro-1-(2′,3′,4′,5′-tetrahydro-[1,1′-biphenyl]-4-yl)-1H-indazol-6-ol] reads less than 100 nM. For `CC1(C)CCN(c2ccc(-n3c(=O)oc4cc(F)c(O)c(F)c43)cc2)CC1` [Compound 39, 3-(4-(4,4-Dimethylpiperidin-1-yl)phenyl)-4,6-difluoro-5-hydroxybenzo[d]oxazol-2(3H)-one], the IC50 is less than 100 nM.

On to `CC1(C)CCN(c2ccc(-n3cnc4cc(F)c(O)cc43)cc2)CC1` [Compound 21.10, 1-(4-(4,4-Dimethylpiperidin-1-yl)phenyl)-5-fluoro-1H-benzo[d]imidazol-6-ol], for which the inhibition at 10 µM (3 h, at 10 uM compound, read-out: HSD17β13 % at 10 uM) is 35%.

`Oc1cccc(-c2ccc(-n3ncc4c(F)c(F)c(O)c(F)c43)cc2)c1` [Compound 15.4, 4,5,7-Trifluoro-1-(3′-hydroxy-[1,1′-biphenyl]-4-yl)-1H-indazol-6-ol]: the half-inhibitory concentration (IC50) was 100 to 1000 nM. Same read-out and setting: in the case of `CS(=O)(=O)C1CN(c2ccc(-n3nnc4cc(F)c(O)c(F)c43)cc2)C1` [Compound 20.14, 5,7-Difluoro-1-(4-(3-(methylsulfonyl)azetidin-1-yl)phenyl)-1H-benzo[d][1,2,3]triazol-6-ol] it was 100 to 1000 nM; in that of `Cc1cccc(-c2ccc(-n3ncc4cc(F)c(O)cc43)cc2)c1` [Compound 13.10, 5-Fluoro-1-(3′-methyl-[1,1′-biphenyl]-4-yl)-1H-indazol-6-ol], 100 to 1000 nM; in that of `Oc1c(F)cc2nnn(-c3ccc(N4CCOC[C@H]4c4ccccc4)cc3)c2c1F` [Compound 26.28, (R)-5,7-Difluoro-1-(4-(3-phenylmorpholino)phenyl)-1H-benzo[d][1,2,3]triazol-6-ol], 100 to 1000 nM. On the same count and under the same terms, the result for `CC(C)C1CN(c2ccc(-n3ncc4cc(F)c(O)c(F)c43)cc2)C1` [Compound 24.3, 5,7-Difluoro-1-(4-(3-isopropylazetidin-1-yl)phenyl)-1H-indazol-6-ol] reads less than 100 nM. Still for that read-out and setting: in the case of `CN1CCN(c2ccc(-n3ncc4cc(F)c(O)c(F)c43)cc2)CC1` [Compound 24.1, 5,7-Difluoro-1-(4-(4-methylpiperazin-1-yl)phenyl)-1H-indazol-6-ol] it was 100 to 1000 nM; in that of `Oc1c(F)cc2cnn(-c3ccc(-c4ccc(Cl)cc4)cn3)c2c1F` [Compound 18.3, 1-(5-(4-Chlorophenyl)pyridin-2-yl)-5,7-difluoro-1H-indazol-6-ol], less than 100 nM; in that of `Oc1ccc(-c2ccc(-n3ncc4cc(F)c(O)cc43)cn2)cc1` [Compound 15.2, 5-Fluoro-1-(6-(4-hydroxyphenyl)pyridin-3-yl)-1H-indazol-6-ol], 100 to 1000 nM. `Cc1cc(-n2ncc3cc(F)c(O)c(F)c32)ccc1N1CCN(S(C)(=O)=O)CC1` [Compound 20.3, 5,7-Difluoro-1-(3-methyl-4-(4-(methylsulfonyl)piperazin-1-yl)phenyl)-1H-indazol-6-ol]: the IC50 is less than 100 nM. On the same count and under the same terms, in the case of `CS(=O)(=O)N1CCCN(c2ccc(-n3ncc4cc(F)c(O)c(F)c43)cc2)CC1` [Compound 23.14, 5,7-Difluoro-1-(4-(4-(methylsulfonyl)-1,4-diazepan-1-yl)phenyl)-1H-indazol-6-ol] it was 100 to 1000 nM. Still for that read-out and setting: in the case of `CS(=O)(=O)N1CCN(c2ccc(-n3ncc4cc(F)c(O)c(F)c43)c(Cl)c2)CC1` [Compound 20.1, 1-(2-Chloro-4-(4-(methylsulfonyl)piperazin-1-yl)phenyl)-5,7-difluoro-1H-indazol-6-ol] it was less than 100 nM; in that of `CS(=O)(=O)N1CCN(c2ccc(-n3nnc4cc(F)c(O)c(F)c43)cc2)CC1` [Compound 21.3, 5,7-Difluoro-1-(4-(4-(methylsulfonyl)piperazin-1-yl)phenyl)-1H-benzo[d][1,2,3]triazol-6-ol], less than 100 nM; in that of `N#Cc1cccc(-c2ccc(-n3ncc4cc(F)c(O)cc43)cc2)c1` [Compound 13.17, 4′-(5-Fluoro-6-hydroxy-1H-indazol-1-yl)-[1,1′-biphenyl]-3-carbonitrile], 100 to 1000 nM. Still for that read-out and setting: the result for `CC1(C)CN(c2ccc(-n3ncc4cc(F)c(O)c(F)c43)cc2)CCO1` [Compound 20.5, 1-(4-(2,2-Dimethylmorpholino)phenyl)-5,7-difluoro-1H-indazol-6-ol] reads less than 100 nM; that for `CS(=O)(=O)N1CC=C(c2ccc(-n3ncc4cc(F)c(O)c(F)c43)cc2)CC1` [Compound 27.4, 5,7-Difluoro-1-(4-(1-(methylsulfonyl)-1,2,3,6-tetrahydropyridin-4-yl)phenyl)-1H-indazol-6-ol], less than 100 nM; that for `CC1(C)CCN(c2ccc(-n3ncc4c(C(F)(F)F)c(F)c(O)cc43)cc2)CC1` [Compound 25.1, 1-(4-(4,4-Dimethylpiperidin-1-yl)phenyl)-5-fluoro-4-(trifluoromethyl)-1H-indazol-6-ol], 100 to 1000 nM. In the case of `CN1CCC(c2ccc(-n3ncc4cc(F)c(O)c(F)c43)cc2)CC1` [Compound 27.10, 5,7-Difluoro-1-(4-(1-methylpiperidin-4-yl)phenyl)-1H-indazol-6-ol], the IC50 is 100 to 1000 nM. The same measure, in the same setting: in the case of `CC1(C)CCN(c2ccc(-n3nnc4cc(F)c(O)c(F)c43)cn2)CC1` [Compound 26.11, 1-(6-(4,4-Dimethylpiperidin-1-yl)pyridin-3-yl)-5,7-difluoro-1H-benzo[d][1,2,3]triazol-6-ol] it was less than 100 nM; in that of `CC1(C)CCN(c2ccc(-n3c(=O)[nH]c4cc(F)c(O)c(F)c43)cc2)CC1` [Compound 11, 1-(4-(4,4-Dimethylpiperidin-1-yl)phenyl)-5,7-difluoro-6-hydroxy-1H-benzo[d]imidazol-2(3H)-one], less than 100 nM; in that of `CS(=O)(=O)N1CCN(c2ccc(-n3nnc4cc(F)c(O)c(F)c43)nc2)CC1` [Compound 26.16, 5,7-Difluoro-1-(5-(4-(methylsulfonyl)piperazin-1-yl)pyridin-2-yl)-1H-benzo[d][1,2,3]triazol-6-ol], 100 to 1000 nM.

Regarding `Oc1cc2c(cnn2-c2ccc(-c3cccc(Cl)c3)cc2)cc1F` [Compound 13.7, 1-(3′-Chloro-[1,1′-biphenyl]-4-yl)-5-fluoro-1H-indazol-6-ol], the IC50 is 100 to 1000 nM. Same read-out and setting: in the case of `OCc1ccc(-c2ccc(-n3ncc4cc(F)c(O)cc43)cc2)cc1` [Compound 13.23, 5-Fluoro-1-(4′-(hydroxymethyl)-[1,1′-biphenyl]-4-yl)-1H-indazol-6-ol] it was 100 to 1000 nM; in that of `COc1nn(-c2ccc(N3CCC(C)(C)CC3)cc2)c2c(F)c(O)c(F)cc12` [Compound 37.1, 1-(4-(4,4-Dimethylpiperidin-1-yl)phenyl)-5,7-difluoro-3-methoxy-1H-indazol-6-ol], 100 to 1000 nM; in that of `Oc1c(F)cc2cnn(-c3ccc(-c4cccnc4)cc3)c2c1F` [Compound 14.3, 5,7-Difluoro-1-(4-(pyridin-3-yl)phenyl)-1H-indazol-6-ol], less than 100 nM.

As for `CC(C)N1CCN(c2ccc(-n3ncc4cc(F)c(O)c(F)c43)cc2)CC1` [Compound 24.2, 5,7-Difluoro-1-(4-(4-isopropylpiperazin-1-yl)phenyl)-1H-indazol-6-ol], the IC50 lay in the range of 100 to 1000 nM. On the same count and under the same terms, the result for `CC1(C)CCN(c2ccc(-n3ncc4cc(F)c(O)c(F)c43)cn2)CC1` [Compound 26, 1-(6-(4,4-Dimethylpiperidin-1-yl)pyridin-3-yl)-5,7-difluoro-1H-indazol-6-ol] reads less than 100 nM; that for `Oc1c(F)cc2cnn(-c3ccc(N4CC5CC(C4)O5)cc3)c2c1F` [Compound 23.16, 1-(4-(6-Oxa-3-azabicyclo[3.1.1]heptan-3-yl)phenyl)-5,7-difluoro-1H-indazol-6-ol], 100 to 1000 nM. In the case of `Oc1cc(-c2ccc(-n3ncc4cc(F)c(O)c(F)c43)cc2)ccc1Cl` [Compound 13.19, 1-(4′-Chloro-3′-hydroxy-[1,1′-biphenyl]-4-yl)-5,7-difluoro-1H-indazol-6-ol], the IC50 was less than 100 nM.

A word on the IC50: it is the concentration that gives 50% inhibition.
